Reference: patent US20130064794A1, “Substituted Carbonyloxymethylphosphoramidate Compounds and Pharmaceutical Compositions for the Treatment of Viral Infections” (IDENIX PHARMACEUTICALS, INC., priority 2011, published 2013)
pEC50: −log10 of the molar value. Where two headings read alike, the source gives them in different places.

Assays:
[1] = Stability in human intestinal microsomes (HIM); type: in vitro ADME; settings: 10 μM, 1.0 mg/mL protein, NADPH, 60 min
Procedure: (§1) Stability of Compound 1 and its diastereomer were determined in subcellular fractions (microsomes and S9) of human liver and intestine in duplicate for each matrix. Pooled liver and intestinal microsomal, intestinal and liver S9 proteins (1.0 mg/mL), suspended in incubation buffer (100 mM potassium phosphate, pH 7.4, 5 mM MgCl2, and 0.1 mM EDTA), were preincubated for 5 min at 37° C. with 10 μM of a test compound from a 10 mM stock solution in DMSO (final DMSO concentration was 0.1%); the reaction was initiated by the addition of NADPH (3 mM final concentration). At specific times (0 and 60 min), 0.1 mL samples were taken and the reaction terminated by the addition of 4 volumes of stop solution (acetonitrile with 500 ng/mL carbutamide as an internal standard). The samples were vortexed for 30 sec and then centrifuged at 16,000 g for 10 min. 100 μL of supernatants were transferred to 96 deep-well plates preloaded with 100 μL distilled water and analyzed after mixing by LC-MS/MS. The MS peak area ratio of the test compound versus the internal standard was calculated and percent unchanged test compound over 60 minutes was calculated using this ratio.

HCV genotype 1b replicon = assay: microbe, parasite or virus in culture; type: cell-based; settings: read-out: HCV Replicon EC50
Procedure: Huh-7-derived cell line (Zluc) that harbors an HCV genotype 1b replicon and a luciferase reporter gene was grown in Dulbecco's Modified Eagle Medium (DMEM) supplemented with 10% fetal bovine serum, 2 mM GlutaMAX, 1% MEM nonessential amino acids, 100 IU/mL penicillin, 100 μg/mL streptomycin, and 0.5 mg/mL Geneticin® (G418). For dose response testing the cells were seeded in 96-well plates at 7.5×10^3 cells per well in a volume of 50 μL, and incubated at 37° C./5% CO2. Drug solutions were made up freshly in Huh-7 media as 2× stocks. Ten additional 5-fold dilutions were prepared from these stocks in DMEM without G418. At least three hours after Zluc cells were seeded, drug treatment was initiated by adding 50 μL of drug dilutions to the plates in duplicate. […] Cells were then incubated at 37° C./5% CO2. Alternatively compounds were tested at two concentrations (10 nM and 100 nM). […] For this, media was removed from the plates via gentle tapping. Fifty microliters of ONE-glo luciferase assay reagent was added to each well. […] The EC50 values were calculated from dose response curves from the resulting best-fit equations determined by Microsoft Excel and XLfit 4.1 software.

mouse hepatocytes = assay: Release of active metabolite in mouse hepatocytes; type: in vitro ADME; settings: 10 μM test compound
Procedure: (§2) Plates of fresh human and mouse hepatocytes were obtained on ice. The medium was removed and replaced with hepatocyte culture medium (William's E supplemented with penicillin-streptomycin, 1% L-glutamine, 1% insulin-transferrin-selenium and 0.1 μM Dexamethasone (Invitrogen) or with Invitro GRO HI medium complemented with Torpedo antibiotics (Celsis)). Cells were left overnight in an incubator at 37° C. to acclimatize to culture and the medium.
(§3) Hepatocyte incubations were conducted at a final volume of 0.5 mL hepatocyte culture medium/well (0.8 million cells/well for human and 0.5 million cells/well for mouse; 12 well plate no overlay, collagen coat). Culture medium from overnight incubation of cells was removed and replaced with fresh medium, pre-warmed to 37° C., containing 10 μM of the test compound from a stock solution in DMSO (final DMSO concentration was 0.1%). At each specific time point, incubation medium was removed and cell monolayers were carefully washed two times with ice-cold PBS. Following the last wash, all PBS was carefully removed and 1.0 mL of extraction solution (ice-cold 70% methanol/30% water) added. Cells were scraped off and suspended in the extraction solution, transferred to 2 mL polypropylene microfuge tubes and intracellular contents extracted overnight at −20° C.
(§4) After the overnight treatment the cellular extracts were prepared by centrifugation at 16,000×g for 10 min to remove cellular debris. The remaining sample was then dried using a refrigerated centrivap concentrator. Dry extracts were reconstituted in 1000 μL of HPLC-grade water and centrifuged at 16,000×g for 10 min. Aliquots (100 μL each) of the supernatant were transferred into a 96 well plate and 2′-C-methyl-adenosine 5′-triphosphate, trisodium salt (4 ng/mL final concentration) was added as the internal standard (1S) for LC-MS/MS analysis.
(§5) The incubation time points were 6, 24 and 48 hours for human hepatocytes and 1, 4, 8, 12 and 24 hours for mouse hepatocytes.

[2] = Stability in simulated intestinal fluid (SIF); type: in vitro ADME; settings: 100 μM, 2 hours at 37° C.
Procedure: (§6) Simulated gastric and intestinal fluids containing pepsin and pancreatin respectively were prepared according to the U.S. Pharmacopoeia USP291 procedure (www.pharmacopeia.cn/v29240/usp29nf24s0_ris1s126.html). Test compound (final concentration 100 μM) was incubated in duplicate in the appropriate fluid for 2 hours at 37° C. The samples were quenched with 200 μl cold acetonitrile, vortexed for 30 seconds and then centrifuged at 16,100 g for 10 min. The supernatants were analyzed by HPLC on a C-18 column with UV detection at 252 nm. The time 0 samples were prepared by adding SGF or SIF fluid to the quenching solvent followed by the test compound. Stability of the compound was determined by peak area the test compound after incubation and calculated as percent of the peak area observed at time zero.

[3] = Stability in human liver microsomes (HLM); type: in vitro ADME; settings: 10 μM, 1.0 mg/mL protein, NADPH, 60 min
Procedure: as §1

fresh human hepatocytes = assay: Release of active metabolite in fresh human hepatocytes; type: in vitro ADME; settings: intracellular triphosphate, 10 μM test compound
Procedure: as §2, §3, §4, §5

[4] = Stability in HIS9 (intestinal S9); type: in vitro ADME, human; settings: 10 μM, 1.0 mg/mL protein, NADPH, 60 min
Procedure: HLM=Human liver microsome; HIM=Human intestinal microsome; HLS9=Human liver S9 fraction; HIS9=Human […] S9 fraction; SGF=Simulated gastric fluid; SIF=Simulated intestinal fluid.
as §1

[5] = Stability in simulated gastric fluid (SGF); type: in vitro ADME; settings: 100 μM, 2 hours at 37° C.
Procedure: as §6

[6] = Stability in human liver S9 fraction (HLS9); type: in vitro ADME; settings: 10 μM, 1.0 mg/mL protein, NADPH, 60 min
Procedure: as §1

Structure (SMILES)	Percent Remaining, HIM (1 hr) [1] [%]	pEC50 (HCV genotype 1b replicon; Zluc cells, HCV genotype 1b replicon, luciferase, 72 hours of incubation)	MsH AUC (mouse hepatocytes) [pmol.hr/mill cells]	MsH Cmax (mouse hepatocytes) [pmol/mill cells]	Percent Remaining, SIF [2] [%]	Percent Remaining, HLM (1 hr) [3] [%]	FHH TP AUC (fresh human hepatocytes) [pmol.hr/mill cells]	FHH TP Cmax (fresh human hepatocytes) [pmol/mill cells]	Percent Remaining, HIS9 (1 hr) [4] [%]	Percent Remaining, SGF [5] [%]	Percent Remaining, HLS9 (1 hr) [6] [%]	pEC50 (HCV genotype 1b replicon; Hepatitis C virus, 72 h)
CCOC(=O)OC(C)OP(=O)(N[C@@H](C)C(=O)OC(C)C)OC[C@H]1O[C@@H](n2cnc3c(OC)nc(N)nc32)[C@](C)(F)[C@@H]1O (single isomer, unassigned) [Compound 15]	54	> 7.00	218	216	0	0	4453	139	76	97	0	–
CCOC(=O)OC(C)OP(=O)(N[C@@H](C)C(=O)OC(C)C)OC[C@H]1O[C@@H](n2cnc3c(OC)nc(N)nc32)[C@](C)(F)[C@@H]1O (single isomer, unassigned) [Compound 14]	41	–	8704	7534	39	0	4006	155	53	91	0.7	> 7.00
